Source: patent US20250114430A1, “MODIFIED PEPTIDOMIMETICS AND METHODS OF USE” (The University of North Carolina at Chapel Hill, priority 2021, published 2025)
No end group written: not given here.

Key:
HEK293 T cells = experiment: Cytotoxicity in HEK293 T cells (calcein); type: cell-based; conditions: 100 μM, 24 h
Method: FIG. 28 panels C and D show cell viability per arbitrary units (left) and transepithelial resistance (right) of vehicle vs. ELD607 before and after treatment.
ELD607 is non-toxic in vitro and in vivo. To investigate potential cytotoxic effects of ELD607, […] were exposed to 100 μM ELD607 for 24 h. Cytotoxicity was assessed by exposing cells to calcein to label live cells and fluorescence read by multi-plate reader. […] Primary human bronchial epithelial cultures were exposed to 1 mM ELD607 or vehicle control (saline) for 24 h. Cytotoxicity was assessed by confocal microscopy using calcein and propidium iodide to label live and dead cells respectively. […] Transepithelial resistance was also measured before and after treatment as a measure of epithelial integrity.

P. aeruginosa = P. aeruginosa infection in WT mice, ELD607 versus comparators; type: in vivo; conditions: WT mice infected with P. aeruginosa
Excerpt: We then infected WT mice with P. aeruginosa and treated with ELD607, the Orai1 small molecule antagonist […], dexamethasone or scrambled ELD607.

[1] = system: P. aeruginosa, Staphylococcus aureus, and Haemophilus influenzae; experiment: Murine bacterial infection models (three organisms); type: in vivo, mice
Method: Mice were dosed intranasally with P. aeruginosa (PA), S. aureus (Sa), or H. influenzae followed by vehicle (saline) or 0.5 mg/kg of ELD100 or ELD607 per mouse. FIG. 19 panels A, F, and K show total cell counts; FIG. 19 panels B, G, and L show BAL macrophages; FIG. 19 panels C, H, and M show BAL neutrophils; FIG. 19 panels D, I, and N show whole lung CFUs; and FIG. 19 panels E, J, and O show spleen CFUs. Top row, P. aeruginosa, middle row, S. aureus, bottom row, H. influenzae. * p<0.05 different from naïve mice; #p<0.05 different from infected mice.
ELD607 reduces neutrophilia and increases lung bacterial clearance in multiple murine bacterial infection models. Neutrophilia is a common feature of both Gram-positive and Gram-negative lung infections. Accordingly, further studies were performed with P. aeruginosa, Staphylococcus aureus, and Haemophilus influenzae (FIG. 19 panels B, C, G, H, L, and M). After infection with all three organisms, significant levels of bacteria were detected in the lung and spleen, and the infections increased total BAL cell numbers due to neutrophilia, while relative BAL macrophage numbers declined (FIG. 19 panels A-O). […] Moreover, 24 h after infection, about 10^9 CFUs could be detected in murine whole lung homogenate.

HEK293T cells = experiment: Store operated Ca^2+ influx in HEK293T cells after incubation of peptide in ARDS BAL; type: cell-based
Excerpt: ELD607 is active in ARDS patient immune cells. Pulmonary neutrophilic inflammation and increased lung neutrophil elastase levels are common in ARDS patient lungs. We therefore evaluated whether ELD607 remained stable in BAL samples patients with ARDS caused by bacterial pneumonia. […] (FIG. 27, panel A).

Orai1 = Orai1 (Homo sapiens, UniProt Q96D31); experiment: TIRF microscopy of Orai1 in the plasma membrane; type: cell-based; parameters: Endogenous Orai1/store operated Ca^2+ influx have been extensively studied in HEK293T cells; endogenous in cells; host or cells: HEK293T; conditions: Orai1-YFP, 3 h
Excerpt: To determine whether ELD607 internalized Orai1, total internal reflection fluorescence (TIRF) microscopy was used to measure Orai1 in the plasma membrane. […] However, ELD607 reduced Orai1 plasma membrane expression by ˜50% (FIG. 26, panels A-B). […] We expressed NFAT-GFP in HEK293T cells and evaluated the ability of ELD607 to attenuate NFAT relocation to the nucleus after stimulation of SOCE by confocal microscopy. ELD607 reduced the percentage of NFAT in the nucleus by greater than 50% (FIG. 26, panels C-D).

[2] = 0.5 mg/kg intranasal, 24 h after infection

Sequence of Orai1 (Q96D31 whole entry): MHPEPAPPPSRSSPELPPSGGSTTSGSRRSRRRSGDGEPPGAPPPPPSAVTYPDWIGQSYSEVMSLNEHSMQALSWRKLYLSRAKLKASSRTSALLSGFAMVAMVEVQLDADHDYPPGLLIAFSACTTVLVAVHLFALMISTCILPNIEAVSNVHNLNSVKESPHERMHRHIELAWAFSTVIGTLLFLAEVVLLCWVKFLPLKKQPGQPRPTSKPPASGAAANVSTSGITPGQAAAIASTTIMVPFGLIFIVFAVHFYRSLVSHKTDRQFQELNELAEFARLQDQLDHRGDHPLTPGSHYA

## VHDIVNMLIRG [ELD607, VHDIVNMLIRG]
HEK293 T cells
  cell viability (calcein): not significantly different to vehicle control
P. aeruginosa
  bacterial infections: significantly reduced
  lung macrophage levels: increased lung macrophage levels
  neutrophilia: significantly reduced
  weight loss: significantly reduced
[1]; [2]
  lung macrophage levels: significantly normalized lung macrophage levels
  neutrophilia: reduced neutrophilia
[1]; FIG. 19 panels D and I
  reduction in lung bacteria: 3-5 log10
[1]; FIG. 19 panels E and J
  sepsis (spleen CFUs): significantly reduced sepsis
[1]; all three infections
  overall outcomes: significantly improved outcomes
HEK293T cells
  inhibition of store operated Ca^2+ influx after incubation in ARDS BAL: did not prevent ELD607 from inhibiting store operated Ca^2+ influx
Orai1
  reduction of Orai1 plasma membrane expression: ~50%
